From publication PMC5218480 (PLoS ONE, 2017)

Tested on: MV-4-11 cells
Experiment: Gene expression microarray analysis (Affymetrix PrimeView) and GSEA
Format: cell-based, human
Parameters: RFU PODN (11730768_x_at) / Fold change /veh PODN (11730768_x_at) / RFU LINC00158 (11744669_a_at) / Fold change /veh LINC00158 (11744669_a_at) / RFU DUSP10 (11751237_a_at) / Fold change /veh DUSP10 (11751237_a_at) / RFU ID3 (11757404_x_at) / Fold change /veh ID3 (11757404_x_at) / RFU PLEKHG5 (11737974_s_at) / Fold change /veh PLEKHG5 (11737974_s_at) / RFU LRRC4B (11730491_at) / Fold change /veh LRRC4B (11730491_at) / RFU GIMAP4 (11747438_a_at) / Fold change /veh GIMAP4 (11747438_a_at) / RFU KRT8 (11758183_x_at) / Fold change /veh KRT8 (11758183_x_at) / RFU CNN1 (11734310_a_at) / Fold change /veh CNN1 (11734310_a_at) / RFU VPS37D (11726825_at) / Fold change /veh VPS37D (11726825_at) / RFU C10orf10 (11716522_x_at) / Fold change /veh C10orf10 (11716522_x_at) / RFU KIR2DL2 /// KIR2DL4 /// KIR2DL5A /// KIR2DL5B /// KIR2DS1 /// KIR2DS2 /// KIR2DS3 /// KIR2DS4 /// KIR3DL3 /// KIR3DL3 /// KIR3DS1 (11738374_at) / Fold change /veh KIR2DL2 /// KIR2DL4 /// KIR2DL5A /// KIR2DL5B /// KIR2DS1 /// KIR2DS2 /// KIR2DS3 /// KIR2DS4 /// KIR3DL3 /// KIR3DL3 /// KIR3DS1 (11738374_at) / RFU C1QL1 (11718748_at) / Fold change /veh C1QL1 (11718748_at) / RFU TMPRSS4 (11747572_a_at) / Fold change /veh TMPRSS4 (11747572_a_at) / RFU HAMP (11756126_x_at) / Fold change /veh HAMP (11756126_x_at) / RFU RNFT2 (11725882_a_at) / Fold change /veh RNFT2 (11725882_a_at) / RFU NR4A2 (11747474_a_at) / Fold change /veh NR4A2 (11747474_a_at) / RFU ABCC12 (11746883_a_at) / Fold change /veh ABCC12 (11746883_a_at) / RFU TMEM136 (11760407_x_at) / Fold change /veh TMEM136 (11760407_x_at) / RFU CLDN22 /// WWC2 (11732394_at) / Fold change /veh CLDN22 /// WWC2 (11732394_at) / RFU HLA-DPB1 (11760878_x_at) / Fold change /veh HLA-DPB1 (11760878_x_at) / RFU SPINT1 (11716480_a_at) / Fold change /veh SPINT1 (11716480_a_at) / RFU GAP43 (11754022_s_at) / Fold change /veh GAP43 (11754022_s_at) / RFU A4GNT (11735810_at) / Fold change /veh A4GNT (11735810_at) / RFU PRB3 (11715151_x_at) / Fold change /veh PRB3 (11715151_x_at) / RFU TUBB4B (11761932_at) / Fold change /veh TUBB4B (11761932_at) / RFU CAPN14 (11732068_a_at) / Fold change /veh CAPN14 (11732068_a_at) / RFU TMCC2 (11721928_a_at) / Fold change /veh TMCC2 (11721928_a_at) / RFU IRGQ (11745062_a_at) / Fold change /veh IRGQ (11745062_a_at) / RFU FAM174B (11720279_a_at) / Fold change /veh FAM174B (11720279_a_at) / RFU TMPRSS4 (11748680_a_at) / Fold change /veh TMPRSS4 (11748680_a_at) / RFU FAM212B (11763350_a_at) / Fold change /veh FAM212B (11763350_a_at) / RFU PLEKHG5 (11743358_a_at) / Fold change /veh PLEKHG5 (11743358_a_at) / RFU ZSCAN30 (11745921_a_at) / Fold change /veh ZSCAN30 (11745921_a_at) / RFU CMKLR1 (11741424_a_at) / Fold change /veh CMKLR1 (11741424_a_at) / RFU LOC101060620 /// MAPK8IP1 (11723275_at) / Fold change /veh LOC101060620 /// MAPK8IP1 (11723275_at) / RFU SPTSSB (11747773_x_at) / Fold change /veh SPTSSB (11747773_x_at) / RFU PRSS12 (11739890_at) / Fold change /veh PRSS12 (11739890_at) / RFU BIN1 (11741810_x_at) / Fold change /veh BIN1 (11741810_x_at) / RFU WNT11 (11732464_a_at) / Fold change /veh WNT11 (11732464_a_at) / RFU C10orf10 (11716521_a_at) / Fold change /veh C10orf10 (11716521_a_at) / RFU C5orf56 (11738089_at) / Fold change /veh C5orf56 (11738089_at) / RFU CYB561 (11721691_x_at) / Fold change /veh CYB561 (11721691_x_at) / RFU ANKRD19P (11752326_a_at) / Fold change /veh ANKRD19P (11752326_a_at) / RFU OR2T12 /// OR2T33 /// OR2T8 (11738714_s_at) / Fold change /veh OR2T12 /// OR2T33 /// OR2T8 (11738714_s_at) / RFU VCAN (11748164_a_at) / Fold change /veh VCAN (11748164_a_at) / RFU JSRP1 (11732532_at) / Fold change /veh JSRP1 (11732532_at) / RFU KRTAP10-11 (11738290_x_at) / Fold change /veh KRTAP10-11 (11738290_x_at) / RFU MYO3A (11730013_a_at) / Fold change /veh MYO3A (11730013_a_at) / RFU EBF3 (11725865_a_at) / Fold change /veh EBF3 (11725865_a_at) / RFU CAMK2N1 (11719241_x_at) / Fold change /veh CAMK2N1 (11719241_x_at) / RFU C5orf56 (11738088_a_at) / Fold change /veh C5orf56 (11738088_a_at) / RFU OLFML3 (11715873_a_at) / Fold change /veh OLFML3 (11715873_a_at) / RFU LOC100653217 /// NTM (11731650_a_at) / Fold change /veh LOC100653217 /// NTM (11731650_a_at) / RFU MAPK11 (11762145_a_at) / Fold change /veh MAPK11 (11762145_a_at) / RFU FIZ1 (11724087_x_at) / Fold change /veh FIZ1 (11724087_x_at) / RFU OASL (11726364_x_at) / Fold change /veh OASL (11726364_x_at) / RFU SOX15 (11748057_x_at) / Fold change /veh SOX15 (11748057_x_at) / RFU CD79A (11719716_a_at) / Fold change /veh CD79A (11719716_a_at) / RFU HIST1H1D (11736915_at) / Fold change /veh HIST1H1D (11736915_at) / RFU CASKIN2 (11723855_a_at) / Fold change /veh CASKIN2 (11723855_a_at) / RFU LOC730098 (11760151_x_at) / Fold change /veh LOC730098 (11760151_x_at) / RFU OR4N2 (11742367_at) / Fold change /veh OR4N2 (11742367_at) / RFU PRRT2 (11749266_a_at) / Fold change /veh PRRT2 (11749266_a_at) / RFU SNX32 (11753110_a_at) / Fold change /veh SNX32 (11753110_a_at) / RFU CDHR5 (11726645_a_at) / Fold change /veh CDHR5 (11726645_a_at) / RFU RCAN1 (11760418_a_at) / Fold change /veh RCAN1 (11760418_a_at) / RFU FAM167A (11723789_a_at) / Fold change /veh FAM167A (11723789_a_at) / RFU FAM26E (11764081_at) / Fold change /veh FAM26E (11764081_at) / RFU ISYNA1 (11749810_s_at) / Fold change /veh ISYNA1 (11749810_s_at) / RFU ACY1 (11761880_at) / Fold change /veh ACY1 (11761880_at) / RFU 11764098_at / Fold change /veh 11764098_at / RFU SAMD14 (11745864_x_at) / Fold change /veh SAMD14 (11745864_x_at) / RFU NPB (11741838_a_at) / Fold change /veh NPB (11741838_a_at) / RFU TMPRSS6 (11731388_a_at) / Fold change /veh TMPRSS6 (11731388_a_at) / RFU KRTAP10-2 (11738614_at) / Fold change /veh KRTAP10-2 (11738614_at) / RFU ARHGAP8 /// PRR5-ARHGAP8 (11727945_x_at) / Fold change /veh ARHGAP8 /// PRR5-ARHGAP8 (11727945_x_at) / RFU KRTAP5-7 /// NADSYN1 (11734609_at) / Fold change /veh KRTAP5-7 /// NADSYN1 (11734609_at) / RFU RASL12 (11751679_a_at) / Fold change /veh RASL12 (11751679_a_at) / RFU CDKN2B (11736163_a_at) / Fold change /veh CDKN2B (11736163_a_at) / RFU PRF1 (11729649_at) / Fold change /veh PRF1 (11729649_at) / RFU, ZNF638 /// ZNF638-IT1 / Fold change vs veh, ZNF638 /// ZNF638-IT1 / RFU, PANK3 / Fold change vs veh, PANK3 / RFU, SH3YL1 / Fold change vs veh, SH3YL1 / RFU, ZEB2 / Fold change vs veh, ZEB2 / RFU, NRIP1 / Fold change vs veh, NRIP1 / RFU, PTTG1IP / Fold change vs veh, PTTG1IP / RFU, CAPN2 / Fold change vs veh, CAPN2 / RFU, MED14 / Fold change vs veh, MED14 / RFU, SNORA58 / Fold change vs veh, SNORA58 / RFU, C1orf63 / Fold change vs veh, C1orf63 / RFU, LRRFIP1 / Fold change vs veh, LRRFIP1 / RFU, NDUFAF7 / Fold change vs veh, NDUFAF7 / RFU, SLC12A2 / Fold change vs veh, SLC12A2 / RFU, IBTK / Fold change vs veh, IBTK / RFU, ESF1 / Fold change vs veh, ESF1 / Fold change vs veh, TMEM50B / RFU, TAOK1 / Fold change vs veh, TAOK1 / RFU, ACBD3 / Fold change vs veh, ACBD3 / RFU, TMA16 / Fold change vs veh, TMA16 / RFU, RWDD3 / Fold change vs veh, RWDD3 / RFU, BCAT1 / Fold change vs veh, BCAT1 / RFU, EDEM3 / Fold change vs veh, EDEM3 / RFU, TMEM33 / Fold change vs veh, TMEM33 / RFU, WDR75 / Fold change vs veh, WDR75 / RFU, AHCTF1 / Fold change vs veh, AHCTF1 / RFU, TFRC / Fold change vs veh, TFRC / RFU, ZDHHC17 / Fold change vs veh, ZDHHC17 / RFU, NOM1 / Fold change vs veh, NOM1 / RFU, ARL8B / Fold change vs veh, ARL8B / RFU, ZBTB11 / Fold change vs veh, ZBTB11 / RFU, TAMM41 / Fold change vs veh, TAMM41 / RFU, KIAA1704 /// LOC100996395 / Fold change vs veh, KIAA1704 /// LOC100996395 / RFU, ING1 / Fold change vs veh, ING1 / RFU, TRMT61B / Fold change vs veh, TRMT61B / RFU, FUBP3 / Fold change vs veh, FUBP3 / RFU, TP53 / Fold change vs veh, TP53 / RFU, TNKS2 / Fold change vs veh, TNKS2 / RFU, ZFP14 / Fold change vs veh, ZFP14 / RFU, ACTR2 / Fold change vs veh, ACTR2 / RFU, PPP3R1 / Fold change vs veh, PPP3R1 / RFU, PIK3R1 / Fold change vs veh, PIK3R1 / RFU, HNRNPA1 / Fold change vs veh, HNRNPA1 / RFU, RNF170 / Fold change vs veh, RNF170 / RFU, ZNF28 / Fold change vs veh, ZNF28 / RFU, RNGTT / Fold change vs veh, RNGTT / RFU, OGT / Fold change vs veh, OGT / RFU, BRD1 / Fold change vs veh, BRD1 / RFU, MARS / Fold change vs veh, MARS / RFU, ZNF655 / Fold change vs veh, ZNF655 / RFU, FAHD1 / Fold change vs veh, FAHD1 / RFU, BDP1 / Fold change vs veh, BDP1 / RFU, LRRCC1 / Fold change vs veh, LRRCC1 / RFU, ARID1A / Fold change vs veh, ARID1A / RFU, ZNF146 / Fold change vs veh, ZNF146 / RFU, ZNF330 / Fold change vs veh, ZNF330 / RFU, GPN3 / Fold change vs veh, GPN3 / RFU, C9orf123 / Fold change vs veh, C9orf123 / RFU, N4BP2L2 / Fold change vs veh, N4BP2L2 / RFU, ARFIP1 / Fold change vs veh, ARFIP1 / RFU, FAM179B / Fold change vs veh, FAM179B / RFU, BCL10 / Fold change vs veh, BCL10 / RFU, UHRF1BP1L / Fold change vs veh, UHRF1BP1L / RFU, BET1 / Fold change vs veh, BET1 / RFU, CNOT2 / Fold change vs veh, CNOT2 / RFU, ZNF268 / Fold change vs veh, ZNF268 / Fold change vs veh, ZNF507 / RFU, DGCR2 / Fold change vs veh, DGCR2 / RFU, WDSUB1 / Fold change vs veh, WDSUB1 / Fold change vs veh, HSP90B1 /// MIR3652 / RFU, ADSS / Fold change vs veh, ADSS / RFU, GK / Fold change vs veh, GK / RFU, ZNF148 / Fold change vs veh, ZNF148 / RFU, TAF9 / Fold change vs veh, TAF9 / RFU, SLC1A5 / Fold change vs veh, SLC1A5 / RFU, SLMO2 / Fold change vs veh, SLMO2 / RFU, ABCC4 / Fold change vs veh, ABCC4 / RFU, LOC101060439 /// RAP1B / Fold change vs veh, LOC101060439 /// RAP1B / RFU, RFX7 / Fold change vs veh, RFX7 / RFU, GTPBP10 / Fold change vs veh, GTPBP10 / RFU, CNEP1R1 / Fold change vs veh, CNEP1R1 / RFU, BIVM-ERCC5 /// ERCC5 / Fold change vs veh, BIVM-ERCC5 /// ERCC5 / RFU, ILF3 / Fold change vs veh, ILF3 / RFU 11762660_at / Fold change /veh 11762660_at / RFU VCAN (11757783_s_at) / Fold change /veh VCAN (11757783_s_at) / RFU DDX43 (11728927_at) / Fold change /veh DDX43 (11728927_at) / RFU KRT8 (11758188_x_at) / Fold change /veh KRT8 (11758188_x_at) / RFU NKD1 (11759106_at) / Fold change /veh NKD1 (11759106_at) / RFU SRD5A1 (11742802_a_at) / Fold change /veh SRD5A1 (11742802_a_at) / RFU TPSAB1 /// TPSB2 (11721975_s_at) / Fold change /veh TPSAB1 /// TPSB2 (11721975_s_at) / RFU GSTM3 (11746129_a_at) / Fold change /veh GSTM3 (11746129_a_at) / RFU IL23R (11737362_x_at) / Fold change /veh IL23R (11737362_x_at) / RFU TMEM51 (11727254_a_at) / Fold change /veh TMEM51 (11727254_a_at) / RFU PIWIL2 (11732686_x_at) / Fold change /veh PIWIL2 (11732686_x_at) / RFU ORM1 (11744905_x_at) / Fold change /veh ORM1 (11744905_x_at) / RFU CCDC152 (11743942_at) / Fold change /veh CCDC152 (11743942_at) / RFU ECM1 (11717891_a_at) / Fold change /veh ECM1 (11717891_a_at) / RFU IL23R (11748794_a_at) / Fold change /veh IL23R (11748794_a_at) / RFU TNFAIP8L3 (11732012_x_at) / Fold change /veh TNFAIP8L3 (11732012_x_at) / RFU MBOAT4 (11741988_at) / Fold change /veh MBOAT4 (11741988_at) / RFU 11764193_at / Fold change /veh 11764193_at / RFU TMEM53 (11763286_at) / Fold change /veh TMEM53 (11763286_at) / RFU MAGEB2 (11727129_at) / Fold change /veh MAGEB2 (11727129_at) / RFU TMEM200A (11744735_a_at) / Fold change /veh TMEM200A (11744735_a_at) / RFU CCDC152 (11751479_a_at) / Fold change /veh CCDC152 (11751479_a_at) / RFU FAM211A (11726209_a_at) / Fold change /veh FAM211A (11726209_a_at) / RFU RGS16 (11746705_a_at) / Fold change /veh RGS16 (11746705_a_at) / RFU VCAN (11755009_s_at) / Fold change /veh VCAN (11755009_s_at) / RFU RHOB (11743442_s_at) / Fold change /veh RHOB (11743442_s_at) / RFU RGS16 (11720943_a_at) / Fold change /veh RGS16 (11720943_a_at) / RFU RGS16 (11720944_at) / Fold change /veh RGS16 (11720944_at) / RFU, VPS4B / Fold change vs veh, VPS4B / RFU, CREB1 / Fold change vs veh, CREB1 / RFU, DNAJC13 / Fold change vs veh, DNAJC13 / RFU, GNAQ / Fold change vs veh, GNAQ / RFU, CDK5R1 / Fold change vs veh, CDK5R1 / RFU, ZRANB3 / Fold change vs veh, ZRANB3 / RFU, CUL4A / Fold change vs veh, CUL4A / RFU, CCNY / Fold change vs veh, CCNY / RFU, UFL1 / Fold change vs veh, UFL1 / RFU, COG3 / Fold change vs veh, COG3 / RFU, DIAPH2 / Fold change vs veh, DIAPH2 / RFU, SKA2 / Fold change vs veh, SKA2 / RFU, AFF3 / Fold change vs veh, AFF3 / RFU, LMF1 / Fold change vs veh, LMF1 / RFU, IPO11 / Fold change vs veh, IPO11 / RFU, DFFB / Fold change vs veh, DFFB / RFU, FOXP1 / Fold change vs veh, FOXP1 / RFU, CARD8 / Fold change vs veh, CARD8 / RFU, STRN3 / Fold change vs veh, STRN3 / RFU, ADK / Fold change vs veh, ADK / RFU, RASSF2 / Fold change vs veh, RASSF2 / RFU, WIPF1 / Fold change vs veh, WIPF1 / RFU, LARP1B / Fold change vs veh, LARP1B / RFU, RASA1 / Fold change vs veh, RASA1 / RFU, RB1 / Fold change vs veh, RB1 / RFU, PPFIA1 / Fold change vs veh, PPFIA1 / RFU, MAT2A / Fold change vs veh, MAT2A / RFU, CCT5 / Fold change vs veh, CCT5 / RFU, WDR92 / Fold change vs veh, WDR92 / RFU, CUX1 / Fold change vs veh, CUX1 / RFU, TTC7A / Fold change vs veh, TTC7A / RFU, TMEM135 / Fold change vs veh, TMEM135 / RFU, DEPTOR / Fold change vs veh, DEPTOR / RFU, CPM / Fold change vs veh, CPM / RFU, DNAJB6 / Fold change vs veh, DNAJB6 / RFU, CACNA2D3 / Fold change vs veh, CACNA2D3 / RFU, DTX4 / Fold change vs veh, DTX4 / RFU, TFCP2 / Fold change vs veh, TFCP2 / RFU, GMCL1 /// GMCL1P1 / Fold change vs veh, GMCL1 /// GMCL1P1 / RFU, AEBP2 / Fold change vs veh, AEBP2 / RFU, SNHG1 /// SNORD22 /// SNORD25 /// SNORD26 /// SNORD27 /// SNORD28 /// SNORD29 /// SNORD31 / Fold change vs veh, SNHG1 /// SNORD22 /// SNORD25 /// SNORD26 /// SNORD27 /// SNORD28 /// SNORD29 /// SNORD31 / Fold change (Aza/veh), C12orf56 (ProbeSet 11735607_a_at) / Fold change (ACY-1035/veh), C12orf56 (ProbeSet 11735607_a_at) / Fold change (Aza/veh), FGFR1OP (ProbeSet 11751329_s_at) / Fold change (ACY-1035/veh), FGFR1OP (ProbeSet 11751329_s_at) / Fold change (Aza/veh), VPS36 (ProbeSet 11739960_a_at) / Fold change (ACY-1035/veh), VPS36 (ProbeSet 11739960_a_at) / RFU SYPL1 (11715823_x_at) / Fold change /veh SYPL1 (11715823_x_at) / RFU IGFBP7 (11715501_s_at) / Fold change /veh IGFBP7 (11715501_s_at) / RFU REEP3 (11722064_at) / Fold change /veh REEP3 (11722064_at) / RFU IGLL1 (11728026_x_at) / Fold change /veh IGLL1 (11728026_x_at): dose or concentration left out as unconfirmed
Details: ProbeSet 11720154_at; LIST B

With `Nc1ncn([C@@H]2O[C@H](CO)[C@@H](O)[C@H]2O)c(=O)n1` [azacitidine] the “Fold change vs veh, NRIP1” value was 0.86.
